Results published in patent US20250171495A1, “MUTLI-TARGETED SERINE PROTEASE INHIBITORS FOR TREATMENT OF CANCER AND VIRAL INFECTION” (Washington University, priority 2023, published 2025).
Where “and” joins values, the source holds several entries; their conditions need not be identical. Equal values may be shown once.

Tests used:
Type in all cases: biochemical
[1] = target: T1, matriptase (Homo sapiens, UniProt Q9Y5Y6); assay: HyCoSuL P4-P2 substrate specificity screening, matriptase; conditions: for P2 Position Substrate Activity for matriptase (percent substrate cleavage/proteolysis): residue fixed at P2 position; for P3 Position Various Amino Acids Substrate Activity, matriptase (percent substrate cleavage/proteolysis): residue fixed at P3 position of substrate library; for P3 Position Substrate Activity for matriptase (percent substrate cleavage/proteolysis): residue fixed at P3 position; for P4 Position Various Amino Acids Substrate Activity, matriptase (percent substrate proteolysis/cleavage): residue fixed at P4 position of substrate library
T1 sequence (Q9Y5Y6 1-855): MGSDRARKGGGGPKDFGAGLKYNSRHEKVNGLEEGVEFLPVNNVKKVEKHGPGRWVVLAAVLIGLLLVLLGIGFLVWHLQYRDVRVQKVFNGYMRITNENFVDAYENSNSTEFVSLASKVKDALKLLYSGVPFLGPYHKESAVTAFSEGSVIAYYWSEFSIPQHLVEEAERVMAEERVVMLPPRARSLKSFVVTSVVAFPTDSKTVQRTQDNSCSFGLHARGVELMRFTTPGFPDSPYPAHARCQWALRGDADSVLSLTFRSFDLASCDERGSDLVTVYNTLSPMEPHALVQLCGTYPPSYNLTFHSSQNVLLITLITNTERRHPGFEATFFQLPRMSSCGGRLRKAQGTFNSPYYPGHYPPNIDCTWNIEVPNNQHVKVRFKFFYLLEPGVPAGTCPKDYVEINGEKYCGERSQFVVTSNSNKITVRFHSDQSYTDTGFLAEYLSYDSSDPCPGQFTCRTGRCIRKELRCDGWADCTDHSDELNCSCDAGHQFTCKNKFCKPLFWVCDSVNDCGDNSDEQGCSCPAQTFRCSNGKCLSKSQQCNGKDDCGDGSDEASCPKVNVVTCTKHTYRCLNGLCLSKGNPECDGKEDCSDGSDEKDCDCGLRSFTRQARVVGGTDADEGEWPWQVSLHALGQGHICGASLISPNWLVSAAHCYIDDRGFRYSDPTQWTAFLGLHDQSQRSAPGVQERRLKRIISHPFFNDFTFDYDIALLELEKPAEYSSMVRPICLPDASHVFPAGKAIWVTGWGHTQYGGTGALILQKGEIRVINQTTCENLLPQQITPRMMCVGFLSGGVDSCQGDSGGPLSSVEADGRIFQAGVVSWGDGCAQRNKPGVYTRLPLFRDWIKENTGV

[2] = target: TMPRSS2 (Homo sapiens, UniProt O15393); assay: PS-SCL / HyCoSuL substrate specificity screening, TMPRSS2; conditions: for P2 Position Substrate Activity for TMPRSS2 (percent substrate cleavage/proteolysis): residue fixed at P2 position of substrate library; for P3 Position Substrate Activity for TMPRSS2 (percent substrate cleavage/proteolysis) / P3 Position Various Amino Acids Substrate Activity, TMPRSS2 (percent substrate cleavage/proteolysis): residue fixed at P3 position of substrate library
TMPRSS2, sequence (O15393 whole entry): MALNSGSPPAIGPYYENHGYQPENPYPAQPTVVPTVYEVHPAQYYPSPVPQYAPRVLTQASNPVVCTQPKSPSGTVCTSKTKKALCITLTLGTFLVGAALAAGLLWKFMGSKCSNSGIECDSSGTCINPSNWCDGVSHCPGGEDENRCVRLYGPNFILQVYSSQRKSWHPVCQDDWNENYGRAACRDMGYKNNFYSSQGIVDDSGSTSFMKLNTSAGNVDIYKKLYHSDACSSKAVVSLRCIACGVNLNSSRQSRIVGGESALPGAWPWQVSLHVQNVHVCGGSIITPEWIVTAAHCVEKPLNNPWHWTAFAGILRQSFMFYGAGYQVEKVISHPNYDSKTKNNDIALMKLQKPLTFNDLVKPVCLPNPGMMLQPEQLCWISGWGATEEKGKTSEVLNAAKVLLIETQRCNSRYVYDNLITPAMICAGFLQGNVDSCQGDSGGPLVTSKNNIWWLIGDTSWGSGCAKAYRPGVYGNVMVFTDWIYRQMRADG

[3] = target: T2, hepsin (Homo sapiens, UniProt P05981); assay: HyCoSuL P4-P2 substrate specificity screening, hepsin; conditions: for P2 Position Substrate Activity for hepsin (percent substrate cleavage/proteolysis): residue fixed at P2 position; for P3 Position Substrate Activity for hepsin (percent substrate cleavage/proteolysis): residue fixed at P3 position; for P4 Position Various Amino Acids Substrate Activity, hepsin (percent substrate proteolysis/cleavage): residue fixed at P4 position of substrate library; for P3 Position Various Amino Acids Substrate Activity, hepsin (percent substrate cleavage/proteolysis): residue fixed at P3 position of substrate library
T2 construct: purchased R&D Systems 4776-SE-010
T2 sequence (P05981 163-417 limits assumed): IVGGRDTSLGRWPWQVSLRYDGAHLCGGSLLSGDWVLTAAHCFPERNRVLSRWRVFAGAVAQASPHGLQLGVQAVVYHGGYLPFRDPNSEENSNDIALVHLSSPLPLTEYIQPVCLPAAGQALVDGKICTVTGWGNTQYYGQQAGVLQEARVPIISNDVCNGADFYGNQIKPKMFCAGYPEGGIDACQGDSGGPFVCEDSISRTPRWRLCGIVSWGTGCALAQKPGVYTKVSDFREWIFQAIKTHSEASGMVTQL
T2 sequence (P05981 1-162 partner limits assumed): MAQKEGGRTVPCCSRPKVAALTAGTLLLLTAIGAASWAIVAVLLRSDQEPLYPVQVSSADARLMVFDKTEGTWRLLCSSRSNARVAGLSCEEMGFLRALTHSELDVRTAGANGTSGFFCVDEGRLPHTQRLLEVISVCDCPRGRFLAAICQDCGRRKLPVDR

[4] = target: T3, HGFA (Homo sapiens, UniProt Q04756); assay: HyCoSuL P4-P2 substrate specificity screening, HGFA; conditions: for P2 Position Substrate Activity for HGFA (percent substrate cleavage/proteolysis): residue fixed at P2 position; for P3 Position Substrate Activity for HGFA (percent substrate cleavage/proteolysis): residue fixed at P3 position; for P4 Position Various Amino Acids Substrate Activity, HGFA (percent substrate proteolysis/cleavage): residue fixed at P4 position of substrate library; for P3 Position Various Amino Acids Substrate Activity, HGFA (percent substrate cleavage/proteolysis): residue fixed at P3 position of substrate library
T3 sequence (Q04756 373-655): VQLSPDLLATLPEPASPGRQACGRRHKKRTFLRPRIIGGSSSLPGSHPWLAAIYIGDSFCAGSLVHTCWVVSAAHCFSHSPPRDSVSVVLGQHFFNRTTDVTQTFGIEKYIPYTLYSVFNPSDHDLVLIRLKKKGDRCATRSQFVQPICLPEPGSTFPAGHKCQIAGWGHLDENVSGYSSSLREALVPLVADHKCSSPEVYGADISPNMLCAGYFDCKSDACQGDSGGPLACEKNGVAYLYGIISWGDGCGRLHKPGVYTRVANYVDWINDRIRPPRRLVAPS

[5] = P1-Arg HyCoSuL, 100 μM, best recognized amino acid set to 100%
[6] = best recognized amino acid set to 100%
[7] = residue fixed at P4 position of substrate library
[8] = residue fixed at P4 position, P1-Arg HyCoSuL, 100 μM, best recognized amino acid set to 100%

Substance	P2 Position Substrate Activity for matriptase (percent substrate cleavage/proteolysis) [1, 5]	P3 Position Various Amino Acids Substrate Activity, matriptase (percent substrate cleavage/proteolysis) [1]	P3 Position Substrate Activity for matriptase (percent substrate cleavage/proteolysis) [1, 5]	P4 Position Various Amino Acids Substrate Activity, matriptase (percent substrate proteolysis/cleavage) [1]	P2 Position Substrate Activity for TMPRSS2 (percent substrate cleavage/proteolysis) [2, 6]	P3 Position Substrate Activity for TMPRSS2 (percent substrate cleavage/proteolysis) [2, 6]	P4 Position Various Amino Acids Substrate Activity, TMPRSS2 (percent substrate proteolysis/cleavage) [2, 7]	P2 Position Substrate Activity for hepsin (percent substrate cleavage/proteolysis) [3, 5]	P3 Position Substrate Activity for hepsin (percent substrate cleavage/proteolysis) [3, 5]	P4 Position Various Amino Acids Substrate Activity, hepsin (percent substrate proteolysis/cleavage) [3]	P2 Position Substrate Activity for HGFA (percent substrate cleavage/proteolysis) [4, 5]	P3 Position Substrate Activity for HGFA (percent substrate cleavage/proteolysis) [4, 5]	P4 Position Various Amino Acids Substrate Activity, HGFA (percent substrate proteolysis/cleavage) [4]	P3 Position Various Amino Acids Substrate Activity, TMPRSS2 (percent substrate cleavage/proteolysis) [2]	P3 Position Various Amino Acids Substrate Activity, hepsin (percent substrate cleavage/proteolysis) [3]	P3 Position Various Amino Acids Substrate Activity, HGFA (percent substrate cleavage/proteolysis) [4]	P4 Position Substrate Activity for matriptase (percent substrate cleavage/proteolysis) [1, 8]	P4 Position Substrate Activity for TMPRSS2 (percent substrate cleavage/proteolysis) ([2]; residue fixed at P4 position of substrate library, best recognized amino acid set to 100%)	P4 Position Substrate Activity for hepsin (percent substrate cleavage/proteolysis) [3, 8]	P4 Position Substrate Activity for HGFA (percent substrate cleavage/proteolysis) [4, 8]
L-Met(O)	1%	52%	51.68%	10%	0.00%	57.41%	24.40%	11.40%	68.16%	22.86%	1.68%	16.63%	6.64%	–	–	–	–	–	–	–
L-Nle	13%	34%	–	34%	11.80%	–	56.06%	62.04%	–	40.93%	45.52%	–	11.76%	38.11%	24.09%	19.15%	–	–	–	–
L-Nva	11%	25%	–	30%	13.88%	–	54.45%	58.40%	–	41.99%	39.80%	–	11.78%	38.62%	25.85%	17.60%	–	–	–	–
L-Orn	4%	74%	73.75% and 62.39%	82%	0.00%	22.76%	–	78.48%	79.70%	–	0.00%	54.04%	–	–	–	–	82.42%	12.33%	84.52%	20.23%
